# From ChEMBL document CHEMBL3045268, “Synthesis, anticancer, and molecular docking studies of pyranone derivatives” (Med Chem Res, 2013)
# Experiments:
# [1] = Antitumor activity against Mus musculus (mouse) EAC cells transplanted in mouse assessed as increase in life span at 75 mg/kg, ip relative to vehicle-treated control; type: functional, Ehrlich; details: route intraperitoneal
# Mus musculus [2] = experiment: Toxicity in Mus musculus (mouse) transplanted with mouse EAC cells assessed as effect on lymphocytes level at 75 mg/kg, ip measured on day 13 post tumor implantation (reference value: 35.8 +/- 1.15%); type: organism-based, Ehrlich; set-up: dose 75 mg/kg, route intraperitoneal; details: in vivo
# Mus musculus [3] = experiment: Toxicity in Mus musculus (mouse) transplanted with mouse EAC cells assessed as effect on RBC level at 75 mg/kg, ip measured on day 13 post tumor implantation (reference value: 3.95 +/- 0.32 million/mm3); type: organism-based, Ehrlich; set-up: dose 75 mg/kg, route intraperitoneal; details: in vivo
# [4] = Antitumor activity against Mus musculus (mouse) EAC cells transplanted in mouse assessed as decrease in body weight at 75 mg/kg, ip measured up to 11 days relative to vehicle-treated control; type: functional, Ehrlich; set-up: scale not given: the % may be the effect or the level left; details: route intraperitoneal
# Mus musculus [5] = experiment: Toxicity in Mus musculus (mouse) transplanted with mouse EAC cells assessed as effect on WBC level measured per 10^3 cells at 75 mg/kg, ip on day 13 post tumor implantation (reference value: 19.49 +/- 0.26 mm3); type: organism-based, Ehrlich; set-up: dose 75 mg/kg, route intraperitoneal; details: in vivo
# Mus musculus [6] = experiment: Toxicity in Mus musculus (mouse) transplanted with mouse EAC cells assessed as effect on monocytes level at 75 mg/kg, ip measured on day 13 post tumor implantation (reference value: 1.4 +/- 0.24%); type: organism-based, Ehrlich; set-up: dose 75 mg/kg, route intraperitoneal; details: in vivo
# Mus musculus [7] = experiment: Toxicity in Mus musculus (mouse) transplanted with mouse EAC cells assessed as effect on neutrophils level at 75 mg/kg, ip measured on day 13 post tumor implantation (reference value: 60.4 +/- 1.5%); type: organism-based, Ehrlich; set-up: dose 75 mg/kg, route intraperitoneal; details: in vivo
# Mus musculus [8] = experiment: Toxicity in Mus musculus (mouse) transplanted with mouse EAC cells assessed as increase in hemoglobin level at 75 mg/kg, ip measured on day 13 post tumor implantation (reference value: 7.5 +/- 0.01 g%); type: organism-based, Ehrlich; set-up: dose 75 mg/kg, route intraperitoneal; details: in vivo
# Mus musculus [9] = experiment: Toxicity in Mus musculus (mouse) transplanted with mouse EAC cells assessed as increase in hemoglobin level at 20 mg/kg, ip measured on day 13 post tumor implantation (reference value: 7.5 +/- 0.01 g%); type: organism-based, Ehrlich; set-up: dose 20 mg/kg, route intraperitoneal; details: in vivo
# Mus musculus [10] = experiment: Toxicity in Mus musculus (mouse) transplanted with mouse EAC cells assessed as effect on lymphocytes level at 20 mg/kg, ip measured on day 13 post tumor implantation (reference value: 35.8 +/- 1.15%); type: organism-based, Ehrlich; set-up: dose 20 mg/kg, route intraperitoneal; details: in vivo
# Mus musculus [11] = experiment: Toxicity in Mus musculus (mouse) transplanted with mouse EAC cells assessed as effect on neutrophils level at 20 mg/kg, ip measured on day 13 post tumor implantation (reference value: 60.4 +/- 1.5%); type: organism-based, Ehrlich; set-up: dose 20 mg/kg, route intraperitoneal; details: in vivo
# Mus musculus [12] = experiment: Toxicity in Mus musculus (mouse) transplanted with mouse EAC cells assessed as effect on WBC level measured per 10^3 cells at 20 mg/kg, ip on day 13 post tumor implantation (reference value: 19.49 +/- 0.26 mm3); type: organism-based, Ehrlich; set-up: dose 20 mg/kg, route intraperitoneal; details: in vivo
# Mus musculus [13] = experiment: Toxicity in Mus musculus (mouse) transplanted with mouse EAC cells assessed as effect on RBC level at 20 mg/kg, ip measured on day 13 post tumor implantation (reference value: 3.95 +/- 0.32 million/mm3); type: organism-based, Ehrlich; set-up: dose 20 mg/kg, route intraperitoneal; details: in vivo
# Mus musculus [14] = experiment: Toxicity in Mus musculus (mouse) transplanted with mouse EAC cells assessed as effect on monocytes level at 20 mg/kg, ip measured on day 13 post tumor implantation (reference value: 1.4 +/- 0.24%); type: organism-based, Ehrlich; set-up: dose 20 mg/kg, route intraperitoneal; details: in vivo
# [15] = Antitumor activity against Mus musculus (mouse) EAC cells transplanted in mouse assessed as increase in life span at 20 mg/kg, ip relative to vehicle-treated control; type: functional, Ehrlich; details: route intraperitoneal
SMILES,Activity [1] [%],Activity (Mus musculus [2]) [%],Activity (Mus musculus [3]) [million/mm3],Activity [4] [%],Activity (Mus musculus [5]),Activity (Mus musculus [6]) [%],Activity (Mus musculus [7]) [%],Activity (Mus musculus [8]) [g%],Activity (Mus musculus [9]) [g%],Activity (Mus musculus [10]) [%],Activity (Mus musculus [11]) [%],Activity (Mus musculus [12]) [mm3],Activity (Mus musculus [13]) [million/mm3],Activity (Mus musculus [14]) [%],Activity [15] [%]
Cc1cc(O)c(-c2csc(N3C(=O)CSC3c3ccc(O)cc3)n2)c(=O)o1 (stereo unspecified),34.37,61,5.63,61.78,16.6 10^3 cells/mm3,4.8,34,13.08,–,–,–,–,–,–,–
Cc1cc(O)c(-c2csc(NC(=O)CN3CCN(C(=O)c4ccco4)CC3)n2)c(=O)o1,-12.5,62,6.28,46.59,48.6 10^3 cells/mm3,4.6,34,13.21,–,–,–,–,–,–,–
O=c1[nH]cc(F)c(=O)[nH]1 [FLUOROURACIL],–,–,–,–,–,–,–,–,13.99,71,27.8,15.6,4.67,1.2,57.29
COc1cc(C2SCC(=O)N2c2nc(-c3c(O)cc(C)oc3=O)cs2)cc(OC)c1OC (stereo unspecified),-1.04,39.4,17.78,-1.047,19.2 10^3 cells/mm3,2,58.2,10.48,–,–,–,–,–,–,–
Cc1cc(O)c(-c2csc(NC(=O)CN3CCN(c4ccc(F)cc4)CC3)n2)c(=O)o1,-39.58,31,17.29,48.32,17.6 10^3 cells/mm3,3,66,11.96,–,–,–,–,–,–,–
Cc1cc(O)c(-c2csc(NC(=O)CN3CCN(C)CC3)n2)c(=O)o1,-1.04,35.4,5,-1.007,19.6 10^3 cells/mm3,1.4,63.2,10.64,–,–,–,–,–,–,–
Cc1cc(O)c(-c2csc(N3C(=O)CSC3c3ccc(Cl)cc3)n2)c(=O)o1 (stereo unspecified),20.83,44,2.76,49.73,18.2 10^3 cells/mm3,3,52.2,8.54,–,–,–,–,–,–,–
COc1ccccc1N1CCN(CC(=O)Nc2nc(-c3c(O)cc(C)oc3=O)cs2)CC1,27.08,70,4.12,58.11,15.7 10^3 cells/mm3,4.8,25,12.52,–,–,–,–,–,–,–
Cc1cc(O)c(-c2csc(N3C(=O)CSC3c3cccc([N+](=O)[O-])c3)n2)c(=O)o1 (stereo unspecified),-23.95,32,19.07,33.5,33.9 10^3 cells/mm3,4,63.2,11.35,–,–,–,–,–,–,–
